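96-well plates; 48 h exposure; 5 concentrations. Endpoints by linear interpolation between flanking doses. Not reached: highest tested concentration assigned. TGI: total growth inhibition.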

For one assay, the system named is UACC-62 melanoma. Description: inhibition of tumour cell growth, NCI panel, 48 h.
In turn, `Cn1c(N)c2c3c(sc2nc1=O)CCCC3` displayed a TGI above 75 µM.

In turn, `NC12Oc3cc(O)cc(O)c3C1(c1ccc(Cl)cc1)c1c(O)cc(O)cc1O2` (centres undefined) yielded a TGI above 100 µM.

Consider `CCN(CC)C(=S)SS(=O)(=O)c1ccc(F)cc1`, for which the TGI was above 100 µM.

The molecule `Cn1c(=O)c2c(no[n+]2[O-])c2ccccc21` had a TGI of 31.8 µM.

In the next assay the test system is CAKI-1 renal. Briefly: inhibition of tumour cell growth, NCI panel, 48 h.
On to `Cn1c(N)c2c3c(sc2nc1=O)CCCC3`, for which the TGI is above 75 µM.

In the case of `NC12Oc3cc(O)cc(O)c3C1(c1ccc(Cl)cc1)c1c(O)cc(O)cc1O2` (centres undefined), the TGI is above 100 µM.

Molecule `CCN(CC)C(=S)SS(=O)(=O)c1ccc(F)cc1` registered a TGI above 100 µM.

`Cn1c(=O)c2c(no[n+]2[O-])c2ccccc21` came in with a TGI of 32.4 µM.

The subject of the next assay is NCI-H226 lung. Description: inhibition of tumour cell growth, NCI panel, 48 h.
`Cn1c(N)c2c3c(sc2nc1=O)CCCC3` registered a TGI above 75 µM.

Turning to `NC12Oc3cc(O)cc(O)c3C1(c1ccc(Cl)cc1)c1c(O)cc(O)cc1O2` (centres undefined), the TGI was above 100 µM.

With `CCN(CC)C(=S)SS(=O)(=O)c1ccc(F)cc1`, the TGI was above 100 µM.

The molecule `Cn1c(=O)c2c(no[n+]2[O-])c2ccccc21` had a TGI of 40.4 µM.

The test system of a further assay is HT29 colon. Briefly: inhibition of tumour cell growth, NCI panel, 48 h.
`Cn1c(N)c2c3c(sc2nc1=O)CCCC3` gave a TGI above 75 µM.

The molecule `NC12Oc3cc(O)cc(O)c3C1(c1ccc(Cl)cc1)c1c(O)cc(O)cc1O2` (centres undefined) had a TGI above 100 µM.

`CCN(CC)C(=S)SS(=O)(=O)c1ccc(F)cc1` yielded a TGI of 53.9 µM.

Molecule `Cn1c(=O)c2c(no[n+]2[O-])c2ccccc21` gave a TGI of 37.2 µM.

For another assay, the system named is HL-60(TB) leukemia. Briefly: inhibition of tumour cell growth, NCI panel, 48 h.
`Cn1c(N)c2c3c(sc2nc1=O)CCCC3` had a TGI above 75 µM.

Molecule `NC12Oc3cc(O)cc(O)c3C1(c1ccc(Cl)cc1)c1c(O)cc(O)cc1O2` (centres undefined) had a TGI above 100 µM.

For a further assay, the system named is IGROV1 ovarian. Description: inhibition of tumour cell growth, NCI panel, 48 h.
Take `Cn1c(N)c2c3c(sc2nc1=O)CCCC3`: the TGI is above 75 µM.

For `NC12Oc3cc(O)cc(O)c3C1(c1ccc(Cl)cc1)c1c(O)cc(O)cc1O2` (centres undefined), the TGI was above 100 µM.

`Cn1c(=O)c2c(no[n+]2[O-])c2ccccc21` displayed a TGI of 31.4 µM.

The test system of a further assay is TK-10 renal. Briefly: inhibition of tumour cell growth, NCI panel, 48 h.
For the molecule `Cn1c(N)c2c3c(sc2nc1=O)CCCC3`, the TGI was above 75 µM.

With `NC12Oc3cc(O)cc(O)c3C1(c1ccc(Cl)cc1)c1c(O)cc(O)cc1O2` (centres undefined), the TGI is above 100 µM.

As to `CCN(CC)C(=S)SS(=O)(=O)c1ccc(F)cc1`, the TGI is above 100 µM.

`Cn1c(=O)c2c(no[n+]2[O-])c2ccccc21`: the TGI came to 56.5 µM.

Another assay concerns EKVX NSCLC. Description: inhibition of tumour cell growth, NCI panel, 48 h.
Molecule `Cn1c(N)c2c3c(sc2nc1=O)CCCC3` came in with a TGI above 75 µM.

In turn, `NC12Oc3cc(O)cc(O)c3C1(c1ccc(Cl)cc1)c1c(O)cc(O)cc1O2` (centres undefined) yielded a TGI above 100 µM.

`CCN(CC)C(=S)SS(=O)(=O)c1ccc(F)cc1` registered a TGI above 100 µM.

The molecule `Cn1c(=O)c2c(no[n+]2[O-])c2ccccc21` displayed a TGI of 46.1 µM.

Another assay deals with LOX IMVI melanoma. Briefly: inhibition of tumour cell growth, NCI panel, 48 h.
With `Cn1c(N)c2c3c(sc2nc1=O)CCCC3`, the TGI was above 75 µM.

On to `NC12Oc3cc(O)cc(O)c3C1(c1ccc(Cl)cc1)c1c(O)cc(O)cc1O2` (centres undefined), for which the TGI was above 100 µM.

Molecule `CCN(CC)C(=S)SS(=O)(=O)c1ccc(F)cc1` returned a TGI of 41.7 µM.

Regarding `Cn1c(=O)c2c(no[n+]2[O-])c2ccccc21`, the TGI turned out to be 31.4 µM.

The test system of a further assay is HCT-15 colon. Description: inhibition of tumour cell growth, NCI panel, 48 h.
The molecule `Cn1c(N)c2c3c(sc2nc1=O)CCCC3` returned a TGI above 75 µM.

Molecule `NC12Oc3cc(O)cc(O)c3C1(c1ccc(Cl)cc1)c1c(O)cc(O)cc1O2` (centres undefined) registered a TGI above 100 µM.

Molecule `CCN(CC)C(=S)SS(=O)(=O)c1ccc(F)cc1` showed a TGI above 100 µM.

For `Cn1c(=O)c2c(no[n+]2[O-])c2ccccc21`, the TGI was 29.5 µM.

The test system of a further assay is T-47D breast. Description: inhibition of tumour cell growth, NCI panel, 48 h.
`Cn1c(N)c2c3c(sc2nc1=O)CCCC3` returned a TGI above 75 µM.

`NC12Oc3cc(O)cc(O)c3C1(c1ccc(Cl)cc1)c1c(O)cc(O)cc1O2` (centres undefined) had a TGI above 100 µM.

For `CCN(CC)C(=S)SS(=O)(=O)c1ccc(F)cc1`, the TGI was above 100 µM.

Molecule `Cn1c(=O)c2c(no[n+]2[O-])c2ccccc21` showed a TGI of 68.3 µM.

In another assay the test system is A549 NSCLC. Description: inhibition of tumour cell growth, NCI panel, 48 h.
On to `NC12Oc3cc(O)cc(O)c3C1(c1ccc(Cl)cc1)c1c(O)cc(O)cc1O2` (centres undefined), for which the TGI was above 100 µM.

In turn, `Cn1c(=O)c2c(no[n+]2[O-])c2ccccc21` gave a TGI above 100 µM.

A further assay concerns SF-539 CNS. Briefly: inhibition of tumour cell growth, NCI panel, 48 h.
For `NC12Oc3cc(O)cc(O)c3C1(c1ccc(Cl)cc1)c1c(O)cc(O)cc1O2` (centres undefined), the TGI is above 100 µM.

Turning to `CCN(CC)C(=S)SS(=O)(=O)c1ccc(F)cc1`, the TGI worked out at 52.4 µM.

`Cn1c(=O)c2c(no[n+]2[O-])c2ccccc21`: the TGI is above 100 µM.

The subject of a further assay is SK-MEL-5 melanoma. Briefly: inhibition of tumour cell growth, NCI panel, 48 h.
`Cn1c(N)c2c3c(sc2nc1=O)CCCC3` registered a TGI above 75 µM.

Take `NC12Oc3cc(O)cc(O)c3C1(c1ccc(Cl)cc1)c1c(O)cc(O)cc1O2` (centres undefined): the TGI was above 100 µM.

`CCN(CC)C(=S)SS(=O)(=O)c1ccc(F)cc1` came in with a TGI above 100 µM.

For the molecule `Cn1c(=O)c2c(no[n+]2[O-])c2ccccc21`, the TGI turned out to be 26 µM.

Another assay has as its system COLO 205 colon. Briefly: inhibition of tumour cell growth, NCI panel, 48 h.
Regarding `Cn1c(N)c2c3c(sc2nc1=O)CCCC3`, the TGI was above 75 µM.

For the molecule `NC12Oc3cc(O)cc(O)c3C1(c1ccc(Cl)cc1)c1c(O)cc(O)cc1O2` (centres undefined), the TGI was above 100 µM.

For `CCN(CC)C(=S)SS(=O)(=O)c1ccc(F)cc1`, the TGI is above 100 µM.

In the case of `Cn1c(=O)c2c(no[n+]2[O-])c2ccccc21`, the TGI was determined as 35.8 µM.
